In US10434074B2, “Peptide and small molecule agonists of EPHA and uses thereof” (CASE WESTERN RESERVE UNIVERSITY, priority 2004, dated 2019):
Entries after “also recorded” stand apart in the source; their conditions may differ. Where no end group is shown, it is not given here.

Tests used:
[1] = target: EphA2 kinase ligand-binding domain (Homo sapiens, UniProt P29317); assay: BIAcore binding to immobilized EphA2 ligand-binding domain; conditions: EphA2 LBD immobilized on sensor chip
Protocol: A) EphA2 activation by labetalol. […] The increasing concentrations of labetalol (0, […], 1.25 mM and 2.5 mM) were injected over EphA2 kinase ligand-binding domain immobilized on the sensor chip.
A) Doxazosin activates EphA2.

EphA2 [2] = target: T1, EphA2 (Homo sapiens, UniProt P29317); assay: EphA2 tyrosine phosphorylation (activation) in PC3 cells, immunoprecipitation and anti-phosphotyrosine blot; format: cell-based; design: We have previously identified EphA2 as the primary EphA kinase expressed in PC-3 cells; endogenous in cells; host or cells: PC-3 (PC3) and DU-145 cells; conditions: for EphA2 activation (agonist function): PC-3 cells, PY99 blot; for EphA2 tyrosine phosphorylation: several different cell lines
T1 sequence (P29317 24-976): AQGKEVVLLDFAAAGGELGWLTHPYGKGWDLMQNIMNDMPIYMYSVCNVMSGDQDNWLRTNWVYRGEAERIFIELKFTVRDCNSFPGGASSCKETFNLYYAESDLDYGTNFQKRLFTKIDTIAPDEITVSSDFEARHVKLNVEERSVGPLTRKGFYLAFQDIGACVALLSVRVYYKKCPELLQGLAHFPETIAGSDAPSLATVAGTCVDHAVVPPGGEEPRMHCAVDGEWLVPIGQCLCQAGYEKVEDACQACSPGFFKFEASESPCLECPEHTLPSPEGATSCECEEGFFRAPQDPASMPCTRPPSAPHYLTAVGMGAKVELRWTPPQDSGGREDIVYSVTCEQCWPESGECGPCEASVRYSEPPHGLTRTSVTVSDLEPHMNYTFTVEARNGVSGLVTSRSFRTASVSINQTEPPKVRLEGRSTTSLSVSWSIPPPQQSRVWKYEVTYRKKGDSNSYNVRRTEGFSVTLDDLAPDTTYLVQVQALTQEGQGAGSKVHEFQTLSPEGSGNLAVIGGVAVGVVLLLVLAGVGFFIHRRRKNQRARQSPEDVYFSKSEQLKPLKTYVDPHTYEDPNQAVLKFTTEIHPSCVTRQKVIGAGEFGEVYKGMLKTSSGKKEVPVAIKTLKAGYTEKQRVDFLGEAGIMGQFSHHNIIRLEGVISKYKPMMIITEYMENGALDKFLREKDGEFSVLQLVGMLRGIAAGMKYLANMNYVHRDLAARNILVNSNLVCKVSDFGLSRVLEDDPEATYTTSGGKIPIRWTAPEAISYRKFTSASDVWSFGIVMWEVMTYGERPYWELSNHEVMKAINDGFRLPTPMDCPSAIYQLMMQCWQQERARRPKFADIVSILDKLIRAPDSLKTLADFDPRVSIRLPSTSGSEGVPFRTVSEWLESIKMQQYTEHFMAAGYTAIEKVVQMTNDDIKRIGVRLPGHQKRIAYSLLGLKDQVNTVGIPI
Protocol: FIG. 9 illustrates EP1 is an EphA2 Kinase Agonist. PC3 cells (1×10^6 cells/ml) were stimulated with different concentrations of EP1-Fc, GST-EP1, or ephrin-A1-Fc for 10 min. EphA2 was precipitated with anti-EphA2. The immune complex was blotted for PY to detect EphA2 activation (top panel), or for EphA2 to show equal loading (lower panel). Data represents one of three similar experimental results.
FIG. 15 illustrates Identification of EP1 residues critical for EphA2 activation. Four out of five EP1 residues that align with receptor-binding regions of ephrins are critical for EphA2 activation. Mutation to alanine was performed at the indicated positions (see letters in FIG. 15 for reference), and the resultant EP1-Fc mutants were used to stimulate PC3 cells for 10 min at […] for ability to activate EphA2.
PC-3 cells were stimulated with the indicated concentration of dobutamine. EphA2 was immunoprecipitated and tested for activation status by blotting with anti-phosphotyrosine (PY99).
Cells cultured in 6 well plates at 70-80% confluence were stimulated with 0.5 μg/ml Fc, 1 μg/ml epnrinA1-Fc or 20 ng/ml HGF/SF or their combinations as indicated. After stimulation, cells were lysed in RIPA buffer (20 mM Tris, pH7.4, 125 mM NaCl, 20 mM NaF, 0.1% SDS, 10% glycerol, 0.5% sodium deoxycholate, and 1% TX-100, 0.5 mM Na3VO4) containing protease inhibitors (1 mM phenylmethylsulphonyl fluoride, and 2 μg/ml each of aprotinin and leupeptin). Cell lysates were clarified by centrifugation at 13,000 rpm for 5 min. Immunoprecipitation was carried out by adding anti-EphA2 antibody to clarified cell lysates and incubated for 1 hour at 4° C. The immunocomplex was captured using γ-bind beads (Pharmacia). Cell lysates or precipitated proteins were separated on 4-20% Tris-glycine gels (Invitrogen) and transferred to Immobilon-P PVDF membranes (Millipore). […] For quantitative analysis, band densities were measured using KODAK 1D imagine analysis software (Eastman Kodak Company).

EphA2 [3] = conditions: several breast cancer cell lines; cited from earlier work
[4] = system: integrin-mediated cell adhesion; assay: Integrin-mediated cell adhesion to fibronectin; format: cell-based
ERK1/2 = assay: Inhibition of ERK1/2 (MAPK) in PC3 cells, anti-p-ERK1/2 blot; format: cell-based, human
From the text: FIG. 11 illustrates Activation of EphA2 downstream signaling by EP1-Fc. PC3 cells were stimulated with the indicated concentrations of ephrinA1-Fc or EP1-Fc fusion proteins and lysed in RIPA buffer. EphA2 activation status was examined by immunoprecipiting EphA2 and blotting for phosphotyrosine or EphA2 itself (top panel). Inhibition of ERK1/2, a downstream signaling event of EphA2 characterized in our lab, was examined by blotting total cell lysates with anti-p-ERK1/2.

EphA2 [5] = target: T1, EphA2; assay: Precipitation of 125I-labeled PC3 cell proteins / Western blot (binding specificity); design: We have previously identified EphA2 as the primary EphA kinase expressed in PC-3 cells; endogenous in cells; host or cells: PC-3 (PC3); conditions: PC3 cell lysates
Protocol: FIGS. 8(A-B) illustrate Specific Binding of EP1-Fc to EphA2 Receptor. A: ^125I labeling of PC3 cells. PC3 cells (10×10^6) were labeled with 125I (0.5 mCi). Then, cell lysates were incubated with EP1-Fc fusion peptide, ephrin-A1-Fc (EA1-Fc), or human Fc as indicated. Equal amount of cell lysate was used in each experimental group. […] B: Western Blotting Analysis. PC3 cell lysates were incubated with EP1-Fc fusion protein, ephrin-A1 protein, or human Fc. The immune complexes were blotted with anti-EphA2. EP1 specifically precipitated EphA2.

PC3 or pRNS-1 cells = assay: 3H-thymidine incorporation; format: cell-based; conditions: overnight stimulation
Protocol: Subconfluent PC3 or pRNS-1 cells were stimulated with the indicated reagents overnight. Next day cells were labeled with ^3H-thymidine for 2 hours. ^3H-thymidine incorporation into isolated DNA synthesis was determined by scintillation counting.

GFP-PC-3 cells = assay: PC3 xenograft growth in nude mice; format: in vivo; design: s.c. tumor growth: dose or concentration left out as unconfirmed; conditions: for s.c. tumor growth: vs human IgG
From the text: Frozen sections were stained with biotinylated rabbit anti-human Fc, and HRP-conjugated streptoavidin.

[6] = system: pRNS-1 prostate epithelial cells; assay: Clonal growth, crystal violet staining; format: cell-based; conditions: 10 days
Protocol: About 80 pRNS-1 prostate epithelial cells were seeded into each well on 12-well dishes in the presence of indicated concentrations of ephrin-A1-Fc. Cells were cultured for 10 days. Clonal growth was visualized by crystal violet staining.

PC3 cells = assay: Cell rounding; format: cell-based, human; conditions: 10 min
Protocol: PC3 cells cultured on coverslips were stimulated with the indicated concentrations of ephrinA1-Fc, EP1-Fc of Fc for 10 min. Cells were then fixed and photographed.

Chain of EphA2 kinase ligand-binding domain (P29317 28-206 limits assumed): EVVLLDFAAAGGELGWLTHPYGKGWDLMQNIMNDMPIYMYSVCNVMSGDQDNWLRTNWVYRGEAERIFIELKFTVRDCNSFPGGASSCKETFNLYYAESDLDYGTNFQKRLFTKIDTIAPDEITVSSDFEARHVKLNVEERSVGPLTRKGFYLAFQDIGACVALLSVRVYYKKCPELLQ

Question: With `CC(CCc1ccccc1)NCC(O)c1ccc(O)c(C(N)=O)c1` (stereo not shown) [Labetalol] as the molecule, how does the “BIAcore binding to EphA2” value [1] read?
Answer: binding curves for interaction of labetalol with EphA2 kinase

Question: What about the “EphA2 activation (agonist function)” value (EphA2 [2]) of the same molecule?
Answer: EphA2 agonists

Question: Which EphA2 tyrosine phosphorylation (EphA2 [2]) does the source give for “GST-EP1: recombinant EP1 fused to GST (RRCVWSTNVYSMEPALFCAA; cysteine pairing not given here; also: fused to GST)” here?
Answer: induces dose-dependent EphA2 tyrosine phosphorylation

Question: With “(di-meo-isoquinolin-1-ylmethyl)-et-di-meo-pyrido(2,1-a)isoquinolin, hydrobromide S120103” as the molecule, how does the “EphA2 activation (agonist function)” value (EphA2 [2]) read?
Answer: EphA2 agonistic compound

Question: Which EphA2 expression (EphA2 [3]) does the source give for `N#CC(=C(/N)Sc1ccccc1N)/C(C#N)=C(/N)Sc1ccccc1N` [U1026] here?
Answer: reduced EphA2 expression

Question: For `CC(CCc1ccc(O)cc1)NCCc1ccc(O)c(O)c1` (stereo not shown) [Dobutamine], which “EphA2 activation (agonist function)” value (EphA2 [2]) is on record?
Answer: EphA2 agonists

Question: Which results are given for “EphA2-binding peptide from X2CX14CX2 phage display library, SEQ ID NO: 1, RRCVWSTNVYSMEPA LFCAA (RRCVWSTNVYSMEPALFCAA) [EP1]”?
Answer: integrin function and cell adhesion [4]: suppressed integrin function and causes reduced cell adhesion; mitogen-activated protein kinase (MAPK) (ERK1/2): inhibited mitogen-activated protein kinase; specificity of binding among cell surface proteins (EphA2 [5]): EphA2 was the only cell surface protein that was targeted by EP1; cell proliferation / growth (PC3 or pRNS-1 cells): inhibited cancer cell growth; EphA2 tyrosine phosphorylation (EphA2 [2]): binds to EphA2 without activating it

Question: Which results are given for `COc1cc2nc(N3CCN(C(=O)C4COc5ccccc5O4)CC3)nc(N)c2cc1OC` (stereo not shown) [Doxazosin]?
Answer: BIAcore binding to EphA2 [1]: direct binding; EphA2 activation (agonist function) (EphA2 [2]): EphA2 agonists

Question: What does the source list for “EP1-Fc: recombinant EP1 fused to Fc, dimeric (RRCVWSTNVYSMEPALFCAA; not fully specified; cysteine pairing not given here; also: fused to Fc, dimeric)”?
Answer: specificity of binding among cell surface proteins (EphA2 [5]): only bound to EphA2; targeting to tumors (GFP-PC-3 cells; frozen sections stained with anti-human Fc): target to GFP-PC-3 tumors; tumor growth after three weeks of treatment (GFP-PC-3 cells; i.p.): lack of effects after three weeks of treatment; s.c. tumor growth (GFP-PC-3 cells; i.p.): moderate inhibitory effects on PC3 xenograft growth; s.c. tumor growth (GFP-PC-3 cells; i.p., listed as Ep1-Fc): could have suppressive effect on the growth of prostate cancer xenograft; clonal cell growth [6]: Inhibition of cell growth; cell proliferation / growth (PC3 or pRNS-1 cells): Inhibition of cell proliferation; EphA2 tyrosine phosphorylation (EphA2 [2]): induces dose-dependent EphA2 tyrosine phosphorylation; cell morphology (rounding) (PC3 cells): adapt a round morphology; also recorded: induced PC3 cell rounding
